We go through one compound from patent US9486471B2, “Combination therapy for the treatment of cancer” (McMaster University, priority 2012, dated 2016).

Data set [1] relates to AML-OCI2 and AML-OCI3 cell lines. As to the kind of experiment: Volumetric cell counting of AML cell lines treated with DR antagonists and agonists. The format is cell-based, human. Conditions: 72 h, serum-free conditions.
Description: Volumetric Cell Counting. The number of AML-OCI2 and AML-OCI3 cells present after 72 h treatment with DR antagonists (FIG. 16b) and agonist (FIG. 16c-d) were counted by measuring the number of events within a fixed volume following the grating strategy defined by forward scatter and side scatter clustering, 7AAD− and Hoechst+.
Due to the bioavailability of dopamine in fetal bovine serum (FBS) (Little et al., 2002), serum-free conditions were employed to assess the role of DRs in AML.
A further data set relates to primary AML cells. As to the kind of experiment: Methocellulose blast colony formation of primary AML cells (Example 2). The class given is cell-based, human. The following applies: 10 μM; control about 22; at least 14 days. As to the method:
Normal HSCs and progenitors were sourced from either mobilized peripheral blood or umbilical cord blood of health patients. Primary AML cells were taken from patients diagnosed with AML. Both normal HSCs and primary AML cells were cultured under standard in vitro methocellulose assay conditions (see http://www.stemcell.com/en/Products/All-Products/MethoCult-H4434-Classic.aspx as well as Clinton Campbell et al. The human stem cell hierarchy is defined by a functional dependence on Mcl-1 for self-renewal capacity. Blood 116 (9) 1433-1442 (Jun. 4, 2010), hereby incorporated by reference) for at least 14 days before the number of colonies were recorded.

Data set [2] relates to AML cell lines HL-60, OCI-AML2 and OCI-AML3. The procedure:
All three lines are leukemic cell lines. HL-60 was derived from promyelocytic AML whereas MV 4-11 and OCI-AML3 are representative of AML. Each compound was incubated with the cells for 72 h. The control was DMSO (ie the vehicle used for the compound) for 72 h. Each condition had three replicates.
A series of dopamine receptor agonists, D3-antagonists, DR1 & 5-antagonists and multi-receptor antagonists were tested for cytotoxicity against three AML cell lines HL-60, OCI-AML2 and OCI-AML3. Testing was performed as set out in Example 1.

The test system of data set [3] is differentiation-associated genes in neoplastic hPSCs. Description: TaqMan Low-Density Array-qPCR of differentiation genes. The class given is cell-based, human. The following applies: treated neoplastic hPSCs; >2 fold increase. On the technique in general: Quantitative PCR measures a nucleic acid by following its amplification.
Description: Gene Expression Analysis. Cells in specific conditions were collected and RNA was extracted by using RNeasy kit (Qiagen), complementary DNA (cDNA) generation by using SuperScript III® cDNA synthesis kit (Invitrogen), pre-amplification and TaqMan® array reaction (Applied Biosystems) were performed according to manufacturer's instructions. The gene expression profile for each treated cell population was analyzed using TaqMan® Stem Cell Pluripotency Array Card on ViiA 7 Real-Time PCR System (Applied Biosystems). Each reaction sample was dispensed into loading wells on the array card and centrifuged twice at 336×g for 1 min each time, sealed, and placed in the thermal cycler. The following cycling conditions were used for all array card applications: 45° C. for 10 min, 94° C. for 10 min, and 40 cycles of 94° C. for 30 s followed by 60° C. for 1 min. Array data were normalized to 18S RNA and GAPDH and comparisons were performed using data analysis 2.0 software (Applied Biosystems).
Data set [4] relates to HL-60, MV4-11 and OCI-AML3 leukemic cell lines. As to the kind of experiment: Normalized cell number of leukemic cell lines after 72 h incubation (Examples 1, 3). The format is cell-based, human. The procedure: All three lines are leukemic cell lines. […] Each condition had three replicates.
The dopamine receptor antagonist and phenothiazine-related compound chlorpromazine was also investigated for effects on the AML cell lines HL-60, MV4-11 and OCI-AML3. Testing was performed as set out in Example 1.

The test system of data set [5] is hematopoietic stem and progenitor cells (HSPC, CB lin-). Description: Methylcellulose colony-forming assay, HSPC (CB lin-). Conditions: 24 h treatment, colonies scored after 14 days. The procedure:
(§1) AML/HPSC Cell Culture. AML cell lines, namely, OCI-AML2 (M4), OCI-AML3 (M4), HL-60 (M2) and MV-4-11(M5) were cultured in RPMI (Gibco) supplemented with 5% heated-inactivated FBS (HyClone). For DR agonist studies with R(+)-7-Hydroxy-DPAT hydrobromide (Sigma), serum-free conditions were employed instead due to the prevalence of dopamine in FBS (Little et al., 2002). AML patient blasts were cultured in IMDM supplemented with 5% heated inactivated FBS (HyClone), 5 ng/mL IL3 (R&D systems), 5×10^−5 M β-mercaptoethanol (Sigma) and BIT (StemCell Technologies). HSC media contained IMDM supplemented with 1% BSA (Sigma), 100 ng/mL SCF (R&D systems), 100 ng/mL Flt-3L (R&D systems) and 20 ng/mL TPO (R&D systems). Patient HSPC and AML samples were treated with compound or DMSO-vehicle (0.1%) for 24 h prior to CFU plating or xenotransplantation studies.
(§2) Methylcellulose Colony-Forming Assay. AML patient or CB lin− cells were cultured 24 hours in the presence of compound or DMSO-vehicle (0.1%) control. AML cells were plated at 50 000 cells/mL in Methocult GF H4434 (Stem Cell Technologies). CB lin− cells were plated at 1000 cells/mL in Methocult GF H4434 (Stem Cell Technologies). Colonies were scored after 14 days of culture using standard morphological criteria.

Data set [6] deals with neoplastic hPSCs (v1H9-Oct4-GFP). Description: Flow cytometry of Oct4 in neoplastic hPSCs. The format is cell-based, human. Background: A flow cytometer gives signals particle by particle.
For data set [7], the system named is p53 and p21 in neoplastic hPSCs. Description: p53 and p21 accumulation in neoplastic hPSCs. The format is cell-based, human. Conditions: 24 h; 10 μM etoposide, 10 μM thioridazine, BMP4. The source says:
Antibodies. Antibodies used for immunocytochemistry were the following: Oct3/4 (BD Trunsduction Laboratories, cat#611203), Sox2 (R&D, cat#AF2018). To detect human hematopoietic cells, Pacific Blue-, PE-, APC- or FITC labeled anti-human CD45 was used (BD Biosciences). FITC anti-CD33, PE anti-CD13, FITC anti-CD41a, FITC anti-HLA DR, and PE anti-CD19 antibodies were obtained from BD Pharmingen. PE anti-CD14, PE anti-CD15 and PE anti-GlyA were acquired from Immunotech Beckman Coulter. To determine pluripotency, PE anti-SSEA3 (BD Biosciences) and PE- or AlexaFluor488 anti-Oct4 (BD Biosciences). Rabbit anti-human dopamine receptor antibodies; DRD1 (Cat#324390), DRD2 (Cat#324393), DRD3 (Cat#324402), DRD4 (Cat#324405) and DRD5 (Cat#324408) were sourced from EMD Chemical. Anti-rabbit Alexa-Fluor-488 (Molecular Probes) was used as the secondary antibody. Primary anti-p53 (Cat#2527) and anti-p21 (Cat#2947) rabbit IgG sourced from Cell Signaling Technology were used to stain fixed and permeabilized cells. Anti-rabbit alexa-Fluor-546 (Molecular Probes) was used as the secondary antibody.

A further data set relates to AML patient blast cells. As to the kind of experiment: Methylcellulose colony-forming assay, AML patient blast-CFU. The format is cell-based, human. As to the method: as §1, §2
The test system of data set [8] is AML LSCs (CD45+CD33+ blast engraftment). As to the kind of experiment: Xenotransplantation of compound-treated AML cells into NSG mice. The format is in vivo. As to the method:
Xenotransplantation Assays. NOD.Cg-Prkdc^scid II2rg^tm1Wjl/SzJ adult mice (NSG) were sub-lethally irradiated with 315 rads 24 hours prior transplantation. 0.8-1.0×10^7 AML MNCs or 1.5-1.8×10^5 CB lin-hematopoietic cells treated with compound or DMSO-vehicle for 24 h were injected via tail vein (IV). After 6-10 weeks, animals were culled, and the BM and spleen were analyzed for the presence of human cells by flow cytometry (LSRII, BD) and data was analyzed using FlowJo software (Tree Star Inc). For secondary HSPC transplants, equal number of engrafted human cells from CB lin− transplants were injected IV in adult irradiated NSG mice as described for primary transplants.
To delineate whether the inhibition of AML-blasts detected in vitro was due to the compounds affecting the neoplastic stem cell compartment, xenotransplantation studies (Dick, 2008) that functionally define LSCs and hematopoietic stem cells (HSCs) were conducted (FIG. 12).

As to `CSc1ccc2c(c1)N(CCC1CCCCN1C)c1ccccc1S2` (racemic) [thioridazine, 10-{2-[(RS)-1-Methylpiperidin-2-yl]ethyl}-2-methylsulfanylphenothiazine], in data set [1], the “number of AML cells” value was “reduced the number of AML cells”. Besides, the “number of CFU colonies of AML cells” value in the data set with primary AML cells stood at 1.6 blast colonies. For the same compound, the “cytotoxicity of AML cell lines” value in [2] was “significant effect”. For the same compound, the cell count entry in [2] (72 h, relative to control) is recorded as “eradicate the AML cell lines”. Besides, in data set [3], the upregulated differentiation-associated genes is 21 of 50. Also, the normalized cell number result in data set [4] (0.1 μM) is “little effect”. For the same compound, the normalized cell number result in [4] (1 μM) is listed as “little effect”. Besides, in data set [4] (10 μM), the “normalized cell number / toxicity” value is listed as “reduced to almost zero”. Moreover, the HSPC multilineage differentiation result in data set [5] is on record as “retaining”. For the same compound, in data set [6], the cell number entry is “reductions” and the “levels of Oct4” value is “reductions”. In addition, in data set [7], the “accumulation of cell stress marker p53” value was “no accumulation” and the “accumulation of p21” value is “no accumulation”. For the same compound, in the data set on AML patient blast cells (10 μM, 24 h), the “blast-CFU generation, DR+ subfraction of patient AML” value was “reduction” and the “blast-CFU generation, DR- subfraction of patient AML” value is listed as “no reduction”. For the same compound, the AML proliferation/clonogenic capacity entry in the data set on AML patient blast cells (24 h treatment, colonies scored after 14 days) was “reduction”. Besides, in the data set on AML patient blast cells (dose not stated in the sentence (0.1, 1, 10 μM tested)), the “AML-blast CFU formation” value is “reduced”. Besides, the “leukemic disease-initiating AML LSC capacity” value in data set [8] (10 μM, 24 h ex vivo treatment) is listed as “significantly reduce”. The “level of leukemic engraftment of secondary transplant recipients” value in data set [8] (secondary recipients, in the absence of thioridazine) is given as “no difference”.
